# Laboratory results taken from patent US20150133495A1 (ViroCura Therapeutics, Inc., priority 2013, published 2015).
# pEC50: −log10 of the molar value.
# System: HCV replicon (HCV1b sub-genomic, Huh-7 cells)
# Experiment: HCV replicon RNA replication assay (luciferase reporter)
# Assay type: cell-based, Hepatitis C virus (CON-1 genotype b)
# Settings: Hepatitis C virus, Huh-7
# Procedure: All curve fitting was conducted using non-linear regression analyses from PRISM (version 4.0c, GraphPad Inc.) and the determination of Rmax and EC50 or IC50 parameters were obtained from sigmoidal dose-response phase (variable slope) equation.
# The replicon HCV1b is generated based on the wild-type sequence CON-1 genotype b (GenBank accession number AJ238799; Lohmann et al., Science 1999, 285: 110-113) and expressed the sub-genomic fragment HCV NS3-NS4A-NS4B-NS5A-NS5B. The replicon contain a hybrid HCV-IRES 5′UTR, a modified luciferase reporter gene expressed as a luciferase-Ubi-neomycin phosphotransferase gene fusion and an EMCV IRES NS3-NS5B subgenomic fragment with its 3′UTR. To generate cell lines harboring the replicon, Huh-7 cells are electroporated with purified in vitro HCV1b RNA transcripts and stable cell lines are selected in the presence of G418. Stable replicon cell lines are established as described in Science 1999, 285: 110-113. The amount of luciferase expressed by selected cells directly correlates with the level of HCV RNA replication, as measured by real-time PCR.
# Stable HCV replicon cells are maintained in Dulbecco's Modified Eagle Medium (DMEM) supplemented with 10% FBS and 0.5 mg/ml G418. During the assay, DMEM supplemented with 10% FBS, containing 0.5% DMSO and lacking G418 are used as assay medium. For the assay, cell stocks are trypsinized and diluted in assay medium to distribute 7,500 cells in 96-well plates. The plates are then incubated at 37° until compound addition. Serial dilutions of the test compound are prepared in 100% DMSO, before dilution in assay medium to a final DMSO concentration of 0.5% to generate a concentration dose response curves. A fixed volume from each well of the compound dilution plate is transferred to a corresponding well of the cell culture plate. The cell culture plate is incubated at 37° C. with 5% CO2 for 72 hours. Following the 72 h incubation period, the medium is aspirated from the 96-well assay plate and a volume of 50_l of lysis buffer 100 mM Tris acetate, 20 mM Mg acetate, 2 mM EGTA, 3.6 mM ATP, 1% Brij 58, 0.7%_-mercaptoethanol containing 45_g/ml luciferine (pH 7.9) is added to each well. The luciferase activity is determined using the luciferase substrate and the luminescence is detected on a MicroBeta JET 1450 LSC & Luminescence Counter (Perkin Elmer) instrument. The luminescence in each well of the culture plate is a measure of the amount of HCV RNA replication in the presence of various concentrations of inhibitor. The % inhibition is calculated for each inhibitor concentration and used to determine the concentration that results in 50% inhibition of HCV replication (EC50).
row,SMILES,pEC50
1,"Cc1noc(C)c1C(=O)O/N=C(\N)c1cccc(C(F)(F)F)c1 [Compound 61, reference compound]",5.00 to 6.00

# Same assay, conditions: Hepatitis C virus, Huh-7, 72 h, read-out: EC50 (Range)
row,SMILES,pEC50
1,"CC(C)(C(=O)O/N=C(\N)c1ccc2c(c1)OCO2)c1ccccc1 [Example 6, (Z)—N′-((2-methyl-2-phenylpropanoyl)oxy)benzo[d][1,3]dioxole-5-carboximidamide]",6.00 to 6.30
2,"N/C(=N\OC(=O)c1conc1-c1ccccc1Cl)c1ccc2c(c1)OCO2 [Example 1, (Z)—N′-((3-(2-chlorophenyl)isoxazole-4-carbonyl)oxy)benzo[d][1,3]dioxole-5-carboximidamide]",5.00 to 6.00
3,"Cc1onc(-c2ccccc2Cl)c1C(=O)O/N=C(\N)c1ccc(OCc2ccc(Cl)nc2)cc1 [Example 49, (Z)—N′-((3-(2-chlorophenyl)-5-methylisoxazole-4-carbonyl)oxy)-4-((6-chloropyridin-3-yl)methoxy)benzimidamide]",> 6.30
4,"COc1ccccc1C/C(N)=N/OC(=O)c1c(-c2ccccc2Cl)noc1C(C)C [Example 15, (Z)—N′-((3-(2-chlorophenyl)-5-isopropylisoxazole-4-carbonyl)oxy)-2-(2-methoxyphenyl)acetimidamide]",> 6.30
5,"N/C(=N\OC(=O)c1ccccc1-c1ccccc1C(=O)O)c1ccc2c(c1)OCO2 [Example 45, (Z)-2′-((((amino(benzo[d][1,3]dioxol-5-yl)methylene)amino)oxy)carbonyl)-[1,1′-biphenyl]-2-carboxylic acid]",< 5.00
6,"COc1ccc(C/C(N)=N/OC(=O)c2c(-c3ccccc3Cl)noc2C)cc1 [Example 23, (Z)—N′-((3-(2-chlorophenyl)-5-methylisoxazole-4-carbonyl)oxy)-2-(4-methoxyphenyl)acetimidamide]",6.00 to 6.30
7,"Cc1noc(C)c1C(=O)O/N=C(\N)c1ccc(OCc2ccc(Cl)cc2)cc1 [Example 32, (Z)-4-((4-chlorobenzyl)oxy)-N′-((3,5-dimethylisoxazole-4-carbonyl)oxy)benzimidamide]",6.00 to 6.30
8,"N/C(=N\OC(=O)c1c(-c2ccccc2Cl)noc1-c1ccncc1)c1ccc2c(c1)OCO2 [Example 17, (Z)—N′-((3-(2-chlorophenyl)-5-(pyridin-4-yl)isoxazole-4-carbonyl)oxy)benzo[d][1,3]dioxole-5-carboximidamide]",5.00 to 6.00
9,"N/C(=N\OC(=O)c1c(C(F)(F)F)cccc1C(F)(F)F)c1ccc2c(c1)OCO2 [Example 4, (Z)—N′-((2,6-bis(trifluoromethyl)benzoyl)oxy)benzo[d][1,3]dioxole-5-carboximidamide]",5.00 to 6.00
10,"COc1ccccc1C/C(N)=N/OC(=O)c1ccccc1-c1ccccc1C(=O)OC(C)C [Example 28, (Z)-isopropyl 2′-((((1-amino-2-(2-methoxyphenyl)ethylidene)amino)oxy)carbonyl)-[1,1′-biphenyl]-2-carboxylate]",> 6.30
11,"Cc1cccc(C)c1C(=O)O/N=C(\N)CCc1ccc(Br)cc1 [Example 8, (Z)-3-(4-bromophenyl)-N′-((2,6-dimethylbenzoyl)oxy)propanimidamide]",> 6.30
12,"Cc1onc(-c2ccccc2Cl)c1C(=O)O/N=C(\N)Cc1nc2ccccc2s1 [Example 24, (Z)-2-(benzo[d]thiazol-2-yl)-N′-((3-(2-chlorophenyl)-5-methylisoxazole-4-carbonyl)oxy)acetimidamide]",5.00 to 6.00
13,"Cc1cccc(C)c1C(=O)O/N=C(\N)c1ccccc1OCc1ccc(F)cc1 [Example 41, (Z)—N′-((2,6-dimethylbenzoyl)oxy)-2-((4-fluorobenzyl)oxy)benzimidamide]",> 6.30
14,"N/C(=N\OC(=O)c1c(-c2ccccc2Cl)noc1Cc1ccccc1)c1ccc2c(c1)OCO2 [Example 13, (Z)—N′-((5-benzyl-3-(2-chlorophenyl)isoxazole-4-carbonyl)oxy)benzo[d][1,3]dioxole-5-carboximidamide]",> 6.30
15,"Cc1onc(-c2ccccc2Cl)c1C(=O)O/N=C(\NCc1cccnc1)c1ccc2c(c1)OCO2 [Example 21, (Z)—N′-((3-(2-chlorophenyl)-5-methylisoxazole-4-carbonyl)oxy)-N-(pyridin-3-ylmethyl)benzo[d][1,3]dioxole-5-carboximidamide]",6.00 to 6.30
16,"CN/C(=N\OC(=O)c1c(-c2ccccc2Cl)noc1C)c1ccc2c(c1)OCO2 [Example 14, (Z)—N′-((3-(2-chlorophenyl)-5-methylisoxazole-4-carbonyl)oxy)-N-methylbenzo[d][1,3]dioxole-5-carboximidamide]",> 6.30
17,"Cc1nc(/C(N)=N\OC(=O)c2c(-c3ccccc3)noc2C)cs1 [Example 30, (E)-2-methyl-N′-((5-methyl-3-phenylisoxazole-4-carbonyl)oxy)thiazole-4-carboximidamide]",5.00 to 6.00
18,"COc1cccc(/C(N)=N/OC(=O)c2c(-c3ccccc3Cl)noc2C)c1 [Example 50, (Z)—N′-((3-(2-chlorophenyl)-5-methylisoxazole-4-carbonyl)oxy)-3-methoxybenzimidamide]",6.00 to 6.30
19,"CC(C(=O)O/N=C(\N)c1ccc2c(c1)OCO2)(c1ccccc1)c1ccccc1 [Example 9, (Z)—N′-((2,2-diphenylpropanoyl)oxy)benzo[d][1,3]dioxole-5-carboximidamide]",> 6.30
20,"Cc1onc(-c2ccccc2Cl)c1C(=O)O/N=C(\N)c1ccc(-c2csnn2)cc1 [Example 36, (Z)—N′-((3-(2-chlorophenyl)-5-methylisoxazole-4-carbonyl)oxy)-4-(1,2,3-thiadiazol-4-yl)benzimidamide]",6.00 to 6.30
21,"N/C(=N\OC(=O)c1ccccc1C(F)(F)F)c1ccc2c(c1)OCO2 [Example 35, (Z)—N′-((2-(trifluoromethyl)benzoyl)oxy)benzo[d][1,3]dioxole-5-carboximidamide]",5.00 to 6.00
22,"COc1ccccc1/C(N)=N/OC(=O)c1c(C)cccc1C [Example 3, (Z)—N′-((2,6-dimethylbenzoyl)oxy)-2-methoxybenzimidamide]",> 6.30
23,"Cc1cccc(C)c1C(=O)O/N=C(\N)Cc1ccc(OCc2ccc(F)cc2)cc1 [Example 37, (Z)—N′-((2,6-dimethylbenzoyl)oxy)-2-(4-((4-fluorobenzyl)oxy)phenyl)acetimidamide]",6.00 to 6.30
24,"CC(C)OC(=O)c1ccccc1-c1ccccc1C(=O)O/N=C(\N)c1ccc2c(c1)OCO2 [Example 38, (Z)-isopropyl 2′-((((amino(benzo[d][1,3]dioxol-5-yl)methylene)amino)oxy)carbonyl)-[1,1′-biphenyl]-2-carboxylate]",> 6.30
25,"N/C(=N\OC(=O)c1ccccc1Cc1ccccc1)c1ccc2c(c1)OCO2 [Example 44, (Z)—N′-((2-benzylbenzoyl)oxy)benzo[d][1,3]dioxole-5-carboximidamide]",6.00 to 6.30
26,"COc1ccc(C/C(N)=N/OC(=O)c2ccccc2-c2ccccc2)cc1 [Example 5, (Z)—N′-(([1,1′-biphenyl]-2-carbonyl)oxy)-2-(4-methoxyphenyl)acetimidamide]",> 6.30
27,"N/C(=N\OC(=O)c1cccc2ccccc12)c1ccc2c(c1)OCO2 [Example 33, (Z)—N′-((1-naphthoyl)oxy)benzo[d][1,3]dioxole-5-carboximidamide]",6.00 to 6.30
28,"CC(C)c1onc(-c2ccccc2Cl)c1C(=O)O/N=C(\N)c1ccc(OCc2ccc(Cl)cc2)cc1 [Example 12, (Z)-4-((4-chlorobenzyl)oxy)-N′-((3-(2-chlorophenyl)-5-isopropylisoxazole-4-carbonyl)oxy)benzimidamide]",6.00 to 6.30
